Data set [1] concerns HL-60. Nature of the data set: MTT assay of cell viability, HL-60. Type of data set: cell-based. The settings on record: 5 days at 37 C. The method, then: (§1) The in vitro cytotoxicities of thioaminal prodrugs of Cordycepin were compared to the parent drug Cordycepin using a standard MTT assay of cell viability (Hansen et al. (1989) J. Immunol. Meth. 119:203-10). Leukemia cell lines growing in the exponential phase (MOLT, […], and CEM/Cl) were plated at a final concentration of 1×10^5 cells/ml and exposed to serial dilutions of the Cordycepin prodrugs. In a subset of the experiments (denoted by “+”), the cells were preincubated with 1 μM of the ADA inhibitor 2′-deoxycoformycin for 30 minutes prior to addition of prodrug. Cell viability was determined after incubation for 5 days at 37 C by addition of 3-(4,5-dimethylthizaol-2-yl)-2,5-diplenyl-tetrazolium dye. IC50 was defined as the drug concentration that reduced cell viability 50% in comparison with the appropriate control.
Background: Formazan colour is commonly taken as a measure of viable cells.

For data set [2], the system named is CEM/Cl. Nature of the data set: MTT assay of cell viability, CEM/Cl. The note with it: 5 days at 37 C. Format: cell-based. The method, then:
as §1

The test system of data set [3] is MOLT. As to the kind of experiment: MTT assay of cell viability, MOLT. Type of data set: cell-based. The note with it: 5 days at 37 C. The method, then: as §1
Data set [4] in a line: HPLC stability analysis: hydrolysis of the prodrug to Cordycepin in phosphate buffer. The settings on record: 0.63 mM in 30 mM phosphate buffer (pH 7.3) containing 5% DMSO, 37 C; for half-life at 0.63 mM: read-out: t½ (time point at which half of the Cordycepin prodrug was hydrolysed to Cordycepin) (converted). Type of data set: physicochemical. The method, then:
To analyze the half-life of thioaminal prodrugs, HPLC stability analysis was performed on the following Cordycepin prodrugs. Solutions (0.63 mM) of each of the following compounds was prepared in 30 mM phosphate buffer (pH 7.3) containing 5% DMSO and incubated at 37 C.

Data set [5] concerns Leukemia cell lines (MOLT, HL-69, and CEM/Cl). Nature of the data set: MTT assay of cell viability, overall comparison with Cordycepin. Format: cell-based. The note with it: both in the presence and absence of ADA inhibitor. The method, then:
as §1

The test system of data set [6] is Leukemia cell lines (MOLT, and CEM/Cl). The description is as above. Type of data set: cell-based. The settings on record: absence vs presence of ADA inhibitor 2′-deoxycoformycin. The method, then:
as §1

Setting [7] is: HL-60, + (preincubated with 1 μM 2′-deoxycoformycin for 30 minutes).
Where [8] appears, read: Homo sapiens, 120 h, HL-60, − (no ADA inhibitor).
Where [9] appears, read: + (preincubated with 1 μM 2′-deoxycoformycin for 30 minutes).

A word on the IC50: it is the concentration that inhibits the measured activity by half.

Where only a bound is given, the exact number is not on record here.

Take `Nc1ncnc2c1ncn2[C@@H]1O[C@H](CO)C[C@H]1O` [Cordycepin, 3′-deoxyadenosine, reference compound]: the IC50 in data set [1] (setting [7]) was found to be 9 µM; in data set [1] (setting [8]), 42 µM; in data set [2] (120 h, − (no ADA inhibitor)) it was 27 µM; in data set [2] (setting [9]), 2 µM; in data set [3] (120 h, − (no ADA inhibitor)), 80 µM; in data set [3] (setting [9]), 21 µM.
`COc1ccc(SCNc2ncnc3c2ncn3[C@@H]2O[C@H](CO)C[C@H]2O)cc1` [5b, 6-N-(4-methoxybenzothio)methyl-Cordycepin]: in data set [4], the half-life at 0.63 mM was 17 h. Also, the IC50 in data set [2] (120 h, − (no ADA inhibitor)) worked out at 15 µM; in data set [2] (setting [9]) it was 3 µM. Also, in data set [5], the “cytotoxic potency compared to Cordycepin” value is “more potent cytotoxic agents than Cordycepin”.
With `CCSCNc1ncnc2c1ncn2[C@@H]1O[C@H](CO)C[C@H]1O` [1b, 6-N-(Ethanethio)methyl-Cordycepin], the “t½ (time point at which half of the Cordycepin prodrug was hydrolysed to Cordycepin)” value in data set [4] was over 72 h.
As to `Cc1ccc(SCNc2ncnc3c2ncn3[C@@H]2O[C@H](CO)C[C@H]2O)cc1` [4b], the IC50 in data set [1] (setting [7]) amounted to 17 µM; in data set [1] (setting [8]), 50 µM; in data set [2] (120 h, − (no ADA inhibitor)) it was 24 µM; in data set [2] (setting [9]) it was 5 µM; in data set [3] (120 h, − (no ADA inhibitor)) it was 35 µM; in data set [3] (setting [9]), 30 µM. Moreover, the “cytotoxic potency compared to Cordycepin” value in data set [5] is listed as “more potent cytotoxic agents than Cordycepin”.
Turning to `OC[C@@H]1C[C@@H](O)[C@H](n2cnc3c(NCSc4ccccc4)ncnc32)O1` [3b, 6-N-(phenylthiol)methyl-Cordycepin], the half-life at 0.63 mM in data set [4] was 15 h. Also, the IC50 was determined as 7 µM in data set [1] (setting [7]); 24 µM in data set [1] (setting [8]); 5.5 µM in data set [2] (120 h, − (no ADA inhibitor)); 2 µM in data set [2] (setting [9]); 18 µM in data set [3] (120 h, − (no ADA inhibitor)); 16 µM in data set [3] (setting [9]). Further, in data set [5], the “cytotoxic potency compared to Cordycepin” value is given as “more potent cytotoxic agents than Cordycepin”. Further, the “attenuation of activity in the absence of ADA inhibitor” value in data set [6] is reported as “not significantly attenuated”.
On to `O=[N+]([O-])c1ccc(CSCNc2ncnc3c2ncn3[C@@H]2O[C@H](CO)C[C@H]2O)cc1` [7b, 6-N-(4-nitrobenzylthio)methyl-Cordycepin], for which, in data set [4], the “t½ (time point at which half of the Cordycepin prodrug was hydrolysed to Cordycepin)” value amounted to 1 h.
For the molecule `OCCSCNc1ncnc2c1ncn2[C@@H]1O[C@H](CO)C[C@H]1O` [2b, 6-N-(2-hydroxyethanethio)methyl-Cordycepin], in data set [4], the “t½ (time point at which half of the Cordycepin prodrug was hydrolysed to Cordycepin)” value was over 72 h.
“6-N-(4-N-acetylbenzylthio)methyl-Cordycepin [8b]”: the 50% inhibitory concentration (IC50) in data set [2] (setting [9]) is 3 µM; in data set [2] (− (no ADA inhibitor)), 15 µM.
